Results taken from patent US6319894A, “Complexes and combinations of fetuin with therapeutic agents” (The Picower Institute for Medical Research, priority 1997, dated 2001).
Structures can show the parent of a compound that is named as a salt. Where two headings read alike, the source gives them in different places.

Assays:
[1] = test system: LPS-stimulated RAW 264.7 cells (inducible nitric oxide synthase, iNOS); assay: NO / nitrite production (Griess reaction, iNOS activity) in LPS-stimulated RAW 264.7 cells; assay type: cell-based, murine; conditions: for augmentation of CNI-1493 activity (nitrite production): glycoprotein 2.5 μg/ml, CNI-1493 2.0 μM, FIG. 13
Description: (§1) Typically, cultures were maintained in 150-mm plates with 30 mls culture medium until they reached 80-90% confluence, and were then subjected to different experimental protocols. […] The incubation was continued for another 24 hours before subjecting the cultures to further experiments.
(§2) LPS (endotoxin) was sonicated for 10 minutes and added to culture media to achieve the desired final concentration, typically 100 ng/ml.
Inducible nitric oxide synthase activity (iNOS) was assayed indirectly by measuring NO^2- production. NO^2- was measured by a colorimetric assay based on the Griess reaction. […] The optical density was read at 560 nm after 10 min, and NO^2- concentration was determined with reference to a standard curve by using concentrations of 1.5 to 50 μM sodium nitrite in culture medium.

[2] = Charge at physiological pH; assay type: physicochemical
[3] = test system: LPS-stimulated RAW 264.7 cells (LPS-inducible arginase II activity); conditions: pre-treatment; prior studies; cited from earlier work
[4] = test system: mice, endotoxin (LPS) lethality; conditions: in vivo; background statement; cited from earlier work
[5] = test system: LPS-stimulated RAW 264.7 cells (IL-1 β, IL-6, MIP-1α, and MIP-1β); conditions: pre-treatment; prior studies; cited from earlier work
[6] = test system: LPS-stimulated RAW 264.7 cells (TNF production); conditions: pre-treatment; prior studies; cited from earlier work
[7] = test system: LPS-stimulated RAW 264.7 cells (TNF production); assay: TNF production (ELISA) in LPS-stimulated RAW 264.7 cells; assay type: cell-based, murine; conditions: for inhibition at 2.5 µM: RAW264.7, 4 h
Description: as §1, §2

[8] = test system: human peripheral blood mononuclear cells; conditions: background statement, cited from earlier work
[9] = test system: LPS-stimulated human PBMCs (TNF production); assay: TNF production in LPS-stimulated human PBMCs; assay type: cell-based; conditions: CNI-1493 50 nM, FIG. 11; for enhancement of CNI-1493 activity (TNF suppression in PBMCs): fetuin 1.0 μg/ml or 10 μg/ml
[10] = test system: LPS-stimulated RAW 264.7 cells (inducible nitric oxide synthase, iNOS); conditions: pre-treatment; prior studies; cited from earlier work
rat paw edema = conditions: carageenan administration; background statement; cited from earlier work
NO production = conditions: background statement; cited from earlier work
[11] = test system: LPS-stimulated RAW 264.7 cells (LPS-inducible arginase II activity); assay: Urea production (LPS-inducible arginase II functional assay) in LPS-stimulated RAW 264.7 cells; assay type: cell-based, murine
Description: as §1, §2
Accumulation of urea in the cell culture medium was measured as a functional assay of LPS-inducible arginase II activity. […] The optical density at 535 nm was measured, and urea concentrations were calculated by comparison with OD535 of standard dilutions of urea prepared in culture medium.
Whole-cell lysate preparations were fractionated by sequential ultrafiltration over Amicon Centricon®-100, and Centricon®-30 filters, respectively.

arginine uptake = assay: Assay for arginine uptake; assay type: cell-based
[12] = test system: LPS-challenged mice (serum TNF); assay: Serum TNF levels in LPS-challenged mice; assay type: in vivo; conditions: fetuin 20 mg/kg pretreatment 1 hour; CNI-1493 2.5 mg/kg ip; LPS 13 mg/kg; serum at four hours; FIG. 12
Description: The fetuin pretreatment dose was 20 mg/kg.

[13] = LPS-activated macrophages, CNI-1493 alone
[14] = non-responsive cultures (≥56 hours after 1:4 split), CNI-1493 up to 5 μM

α1-acid glycoprotein: other glycoprotein, net negatively charged at physiological pH
augmentation of CNI-1493 activity (nitrite production) [1]: only fetuin was effective in augmenting CNI-1493 therapeutic activity

CC(=NNC(=N)N)c1cc(NC(=O)CCCCCCCCC(=O)Nc2cc(C(C)=NNC(=N)N)cc(C(C)=NNC(=N)N)c2)cc(C(C)=NNC(=N)N)c1 [CNI-1493, N,N'-bis[3,5-bis[1-(aminoiminomethyl)hydrazonoethyl]phenyl]decanediamide tetrahydrochloride]
charge at physiological pH [2]: four positive charges
suppression of NO production [1, 13]: dose-dependent suppression
inhibition at 2.5 µM ([1]; Mus musculus, RAW264.7, read-out: suppression of NO): > 50%
inhibition at 2.5 µM ([1]; Mus musculus, RAW264.7, read-out: suppression of NO accumulation): < 10%
IC50 ([1]; Mus musculus, RAW264.7, responsive cultures, stated as approximately the same as the urea IC50, read-out: IC50 with respect to NO production): < 2 µM
effect on level of NO [1, 14]: not reduced
suppression of LPS-stimulated urea production [3]: suppresses
protection against lethal effects of endotoxin [4]: protects mice against lethal effects of endotoxin
suppression of several other cytokines such as IL-1 β, IL-6, MIP-1α, and MIP-1β [5]: suppresses
suppression of LPS-stimulated TNF production [6]: suppresses
suppression of TNF-α production [7, 13]: dose-dependent suppression
inhibition at 2.5 µM ([7]; Mus musculus, read-out: suppression of TNF accumulation): < 10%
inhibition at 2.5 µM ([7]; Mus musculus, read-out: suppression of TNF production): > 90%
IC50 ([7]; Mus musculus, RAW264.7, responsive cultures, stated as approximately the same as the urea IC50, read-out: IC50 with respect to TNF production): < 2 µM
inhibition of TNF levels in culture supernatants ([7]; low serum precultured (non-responsive) cells, FIG. 1): not responsive
effect on level of TNF [7, 14]: not reduced
inhibition of TNF translation [8]: inhibits TNF (tumor necrosis factor) translation
suppression of production of IL-1, IL-6, MIP-1α and MIP-1β ([8]; human peripheral blood mononuclear cells): suppresses the production of IL-1, IL-6, MIP-1α and MIP-1β
suppression of TNF production in PBMCs by CNI-1493 [9]: active in suppressing TNF production
suppression of LPS-stimulated NO production [10]: suppresses
anti-inflammatory effect, paw edema and inflammation (rat paw edema): suppression of rat paw edema and inflammation
IC50 (NO production): 5 µM
suppression of urea production [11, 13]: dose-dependent suppression of urea production
inhibition at 5 µM ([11]; Mus musculus, RAW264.7, 20 h, read-out: decrease in urea accumulation compared to control): > 95%
inhibition at 2.5 µM ([11]; Mus musculus, RAW264.7, read-out: suppression of urea): > 50%
inhibition at 2.5 µM ([11]; Mus musculus, RAW264.7, read-out: suppression of urea accumulation): < 10%
IC50 ([11]; Mus musculus, RAW264.7, responsive cultures, estimated, read-out: IC50 (concentration of 50% inhibition) with respect to urea production): < 2 µM
effect on level of urea [11, 14]: not reduced
urea concentration, effect of CNI-1493 alone ([11]; partially non-responsive cells, 2.5 μM CNI-1493, FIG. 9): small degree of inhibitory activity
IC50 (arginine uptake): ~10 µM

B1: human fetuin glycoprotein: human fetuin glycoprotein (commercially prepared, Sigma) (protein)
chain: MKSLVLLLCLAQLWGCHSAPHGPGLIYRQPNCDDPETEEAALVAIDYINQNLPWGYKHTLNQIDEVKVWPQQPSGELFEIEIDTLETTCHVLDPTPVARCSVRQLKEHAVEGDCDFQLLKLDGKFSVVYAKCDSSPDSAEDVRKVCQDCPLLAPLNDTRVVHAAKAALAAFNAQNNGSNFQLEEISRAQLVPLPPSTYVEFTVSGTDCVAKEATEAAKCNLLAEKQYGFCKATLSEKLGGAEVAVTCTVFQTQPVTSQPQPEGANEAVPTPVVDPDAPPSPPLGAPGLPPAGSPPDSHVLLAAPPGHQLHRAHYDLRHTFMGVVSLGSPSGEVSHPRKTRTVVQPSVGAAAGPVVPPCPGRIRHFKV
enhancement of CNI-1493 activity (TNF suppression in PBMCs) [9]: enhanced

B2: glycophorin: other glycoprotein, net negatively charged at physiological pH (protein, UniProt P02724 20-150, looked up)
Glycophorin-A: LSTTEVAMHTSTSSSVTKSYISSQTNDTHKRDTYAATPRAHEVSEISVRTVYPPEEETGERVQLAHHFSEPEITLIIFGVMAGVIGTILLISYGIRRLIKKSPSDVKPLPSPDTDVPLSSVEIENPETSDQ
augmentation of CNI-1493 activity (nitrite production) [1]: only fetuin was effective in augmenting CNI-1493 therapeutic activity

B3: asialofetuin: fetuin glycoprotein treated to remove terminal sialic acid residues (protein, UniProt P12763 19-359, looked up)
Alpha-2-HS-glycoprotein: IPLDPVAGYKEPACDDPDTEQAALAAVDYINKHLPRGYKHTLNQIDSVKVWPRRPTGEVYDIEIDTLETTCHVLDPTPLANCSVRQQTQHAVEGDCDIHVLKQDGQFSVLFTKCDSSPDSAEDVRKLCPDCPLLAPLNDSRVVHAVEVALATFNAESNGSYLQLVEISRAQFVPLPVSVSVEFAVAATDCIAKEVVDPTKCNLLAEKQYGFCKGSVIQKALGGEDVRVTCTLFQTQPVIPQPQPDGAEAEAPSAVPDAAGPTPSAAGPPVASVVVGPSVVAVPLPLHRAHYDLRHTFSGVASVESSSGEAFHVGKTPIVGQPSIPGGPVRLCPGRIRYFKI
modifications: desialylated
notes: fetuin glycoprotein treated to remove terminal sialic acid residues
enhancement of CNI-1493 activity (suppression of urea production) ([11]; non-responsive cultures, glycoprotein 1.0 and 2.5 μg/ml, CNI-1493 2.5 μM, FIG. 10): not nearly as active as fetuin

B4: bovine fetuin (Sigma): globular 341-amino acid polypeptide with six internal disulfide bonds and three N-linked and two O-linked oligosaccharide chains (protein, UniProt P12763 19-359, looked up)
Alpha-2-HS-glycoprotein: IPLDPVAGYKEPACDDPDTEQAALAAVDYINKHLPRGYKHTLNQIDSVKVWPRRPTGEVYDIEIDTLETTCHVLDPTPLANCSVRQQTQHAVEGDCDIHVLKQDGQFSVLFTKCDSSPDSAEDVRKLCPDCPLLAPLNDSRVVHAVEVALATFNAESNGSYLQLVEISRAQFVPLPVSVSVEFAVAATDCIAKEVVDPTKCNLLAEKQYGFCKGSVIQKALGGEDVRVTCTLFQTQPVIPQPQPDGAEAEAPSAVPDAAGPTPSAAGPPVASVVVGPSVVAVPLPLHRAHYDLRHTFSGVASVESSSGEAFHVGKTPIVGQPSIPGGPVRLCPGRIRYFKI
enhancement of CNI-1493 activity (suppression of serum TNF) [12]: greatly enhanced CNI-1493 therapeutic activity
enhancement of CNI-1493 activity (TNF suppression in PBMCs) [9]: enhanced, in a dose-dependent fashion

B5: fetuin: globular protein of about 60-70 kDa, containing 20-25% carbohydrate (protein, UniProt P12763 19-359, looked up)
Alpha-2-HS-glycoprotein: IPLDPVAGYKEPACDDPDTEQAALAAVDYINKHLPRGYKHTLNQIDSVKVWPRRPTGEVYDIEIDTLETTCHVLDPTPLANCSVRQQTQHAVEGDCDIHVLKQDGQFSVLFTKCDSSPDSAEDVRKLCPDCPLLAPLNDSRVVHAVEVALATFNAESNGSYLQLVEISRAQFVPLPVSVSVEFAVAATDCIAKEVVDPTKCNLLAEKQYGFCKGSVIQKALGGEDVRVTCTLFQTQPVIPQPQPDGAEAEAPSAVPDAAGPTPSAAGPPVASVVVGPSVVAVPLPLHRAHYDLRHTFSGVASVESSSGEAFHVGKTPIVGQPSIPGGPVRLCPGRIRYFKI
augmentation of CNI-1493 activity (nitrite production) [1]: only fetuin was effective in augmenting CNI-1493 therapeutic activity
